We go through 8 compounds from ChEMBL document CHEMBL1137245, “Synthesis and anti-HIV-1 activity of a novel series of 1,4,2-benzodithiazine-dioxides” (Bioorg Med Chem Lett, 2006).

Data set [1] relates to Human immunodeficiency virus 1. In words: Antiviral activity against HIV1 in CEM cells. The settings on record: Human immunodeficiency virus 1, CCRF-CEM. Type of data set: functional, organism-based.
The nature of data set [2]: Therapeutic index, ratio of IC50 for CEM cells to EC50 for HIV1. Type of data set: cell-based, CCRF-CEM. Particulars: human, read-out: Ratio IC50/EC50.
Data set [3] concerns CCRF-CEM. The experiment in a line: Cytotoxicity against CEM cells. Type of data set: cell-based. Particulars: Homo sapiens.

Compound `Cc1cc(Cl)cc2c1S(=O)(=O)N1CCCN=C1S2` registered an EC50 in data set [1] of 0.09 µM. Moreover, in data set [2], the selectivity ratio came out at 1180. The compound also yielded an IC50 in data set [3] of 106 µM.
Turning to `Cc1cc2c(cc1Cl)SC1=NCC(C)CN1S2(=O)=O` (stereo not drawn), the midpoint of the response in data set [1], the EC50, lay at 162 µM. Besides, the selectivity ratio in data set [2] is more than 1.23. Besides, the concentration for half-maximal inhibition (IC50) in data set [3] was more than 200 µM.
Compound `Cc1cc2c(cc1Cl)SC1=NCCN1S2(=O)=O` gave a concentration for a half-maximal effect (EC50) in data set [1] of 16.5 µM. In addition, in data set [2], the selectivity ratio worked out at 8.2. Further, the half-inhibitory concentration (IC50) in data set [3] stood at 135 µM.
Turning to `Cc1cc2c(cc1Cl)SC1=NCCCN1S2(=O)=O`, the 50% effective concentration (EC50) in data set [1] was 0.98 µM. Moreover, in data set [2], the selectivity ratio was more than 204. In data set [3], this compound had a half-maximal inhibitory concentration (IC50) of more than 200 µM.
Consider `Cc1cc2c(cc1Cl)SC1=NCC(C)N1S2(=O)=O` (stereo not drawn), for which the EC50 in data set [1] was found to be 8.52 µM. Also, the selectivity ratio in data set [2] stood at 12.6. Also, the IC50 in data set [3] worked out at 107 µM.
For `Cc1cc2c(cc1Cl)SC1=NC(CCl)CN1S2(=O)=O` (stereo not drawn), it took 4.04 µM to reach a half-maximal effect in data set [1] (EC50). Also, the selectivity ratio in data set [2] was 6.4. The compound further showed an IC50 in data set [3] of 28 µM.
In the case of `Cc1cc2c(cc1Cl)SC1=NC(CSCc3ccccc3)CN1S2(=O)=O` (stereo not drawn), the concentration giving a half-maximal response (EC50) in data set [1] is more than 200 µM. The compound also showed a concentration for half-maximal inhibition (IC50) in data set [3] of 135 µM.
`O=S1(=O)c2ccc(Cl)cc2SC2=NCCCN21`: the EC50 in data set [1] was 4.75 µM. Moreover, the selectivity ratio in data set [2] is more than 42.1. Moreover, the IC50 in data set [3] is more than 200 µM.
